Test results as given in patent US20070056052A1, “Methods of generating knock-out rodents” (priority 2001, published 2007).

Legend:
mutated HEXA allele mRNA = conditions: increased from undetectable; cited from earlier work
[1] = even at high doses; cited from earlier work
NMD of hMSH2 and hMLH1 = conditions: treatment of freshly drawn whole blood; cited from earlier work
CYP1A1 RNA mutant allele = conditions: cell line with a CYP1A1 mutation; cited from earlier work
NMD = assay: Inhibition of NMD with a protein synthesis inhibitor; conditions: preliminary
From the text: The major drawbacks to using the RNA-based cDNA assay are that the gene-specific RNA may not be produced in an easily collectable tissue and mutant RNA may be lost to a great extent by NMD. […] NMD can be minimized by pre-treating collected cells, such as white blood cells, with a protein synthesis inhibitor before RNA collection. This approach has been successful for the yeast gap repair p53 assay (Flaman et al., 1995; Andreutti-Zaugg et al., 1997) and may be extrapolated to in vivo studies by the administration of a protein synthesis inhibitor to rat pups prior to tissue collection. […] The problem of a gene-specific RNA not being produced in tail tissue may be reduced by extending the range of biopsy tissues collected from viable rats, e.g., WBC, liver, skin, etc. In the future as it becomes possible to cryopreserve rat sperm from F1 male rats of mutagenized fathers, their sperm can be frozen and a wide variety of organ-specific RNAs could also be collected and stored, along with DNA from tails or spleens. DNAs or RNAs from a large number of rats could be screened and the appropriate frozen sperm used for the mutant rat recovery via in vitro fertilization and implantation. […]

## C[C@@H]1C[C@@H]([C@H](O)CC2CC(=O)NC(=O)C2)C(=O)[C@@H](C)C1 [cyclohexamide]
Mutated HEXA allele mRNA
  mRNA levels of the mutated HEXA allele: 40 % of the wild-type allele

## Gentamicin
[1]
  short-term toxicity profile: very low short-term toxicity profile even at high doses

## COc1ccc(C[C@H](N)C(=O)N[C@H]2[C@@H](O)[C@H](n3cnc4c(N(C)C)ncnc43)O[C@@H]2CO)cc1 [puromycin]
NMD of hMSH2 and hMLH1
  NMD of hMSH2 and hMLH1: suppressed
CYP1A1 RNA mutant allele
  steady-state level of CYP1A1 RNA mutant allele: fully restored

## CC[C@H]1CN2CCc3cc(OC)c(OC)cc3[C@@H]2C[C@@H]1C[C@H]1NCCc2cc(OC)c(OC)cc21 [emetine]
NMD
  inhibition of NMD: preliminary success in inhibiting NMD
